From patent publication US4331597A, “Penicillin compounds” (Meiji Seika Kaisha, Ltd., priority 1979, dated 1982)
≈ marks a conversion by molar mass, not a printed value. Where a name gives a salt, the structure may show the parent alone.

Key:
Assay in all cases: Minimum inhibitory concentration test, agar dilution method (plate)
Format in all cases: cell-based
[1] = test system: Pseudomonas cepacia M-0513; conditions: Burkholderia cepacia, M0513
Procedure: (§1) Antimicrobial test (i.e., minimum inhibitory concentration test) on compounds obtained according to this invention was conducted according to the Japan chemotherapy method, using Apalcillin (PC-904) for comparison purposes.
(§2) Minimum Inhibitory Concentration(γ/ml)
(§3) in Agar Dilution Method (Plate)

[2] = test system: Citrobacter freundii GN346 (CSase)
Procedure: as §1, §2, §3

[3] = test system: Pseudomonas aeruginosa E-2; conditions: E2
Procedure: as §1, §2, §3

[4] = test system: Pseudomonas aeruginosa M-0002; conditions: M0002
Procedure: as §1, §2, §3

[5] = test system: Proteus morganii 1510 (CSase); conditions: Morganella morganii
Procedure: as §1, §2, §3

[6] = test system: Pseudomonas maltophilia 602; conditions: Stenotrophomonas maltophilia
Procedure: as §1, §2, §3

[7] = test system: Serratia species GN629 (CSase)
Procedure: as §1, §2, §3

[8] = test system: Streptococcus faecalis ATCC6633; conditions: Enterococcus faecalis
Procedure: as §1, §2, §3

[9] = test system: Klebsiella pneumoniae GN69
Procedure: as §1, §2, §3

[10] = test system: Serratia marcescens No. 1
Procedure: as §1, §2, §3

[11] = test system: Staphylococcus aureus Smiths-424; conditions: SMITHS424
Procedure: as §1, §2, §3

Escherichia coli GN206 = test system: Escherichia coli GN206
Procedure: as §1, §2, §3

[12] = test system: Staphylococcus aureus 209PJC-1; conditions: 209PJC1
Procedure: as §1, §2, §3

Escherichia coli 255 = test system: Escherichia coli 255
Procedure: as §1, §2, §3

[13] = test system: Pseudomonas capacia M-0501; conditions: M0501
Procedure: as §1, §2, §3

Proteus vulgaris OX19 = test system: Proteus vulgaris OX19
Procedure: as §1, §2, §3

Structure (SMILES) | MIC [1] [µg/mL] | MIC [2] [µg/mL] | MIC [3] [µg/mL] | MIC [4] [µg/mL] | MIC [5] [µg/mL] | MIC [6] [µg/mL] | MIC [7] [µg/mL] | MIC [8] [µg/mL] | MIC [9] [µg/mL] | MIC [10] [µg/mL] | MIC [11] [µg/mL] | MIC (Escherichia coli GN206) [µg/mL] | MIC [12] [µg/mL] | MIC (Escherichia coli 255) [µg/mL] | MIC [13] [µg/mL] | MIC (Proteus vulgaris OX19) [µg/mL]
COc1ccc(-c2ccc(C(=O)N[C@@H](C(=O)N[C@@H]3C(=O)N4[C@@H]3SC(C)(C)[C@@H]4C(=O)O)c3ccc(O)cc3)c(=O)[nH]2)cc1OC [Example 1, sodium salt of 6-(3,4-dimethoxyphenyl)-1,2-dihydro-2-oxonicotinylamoxycillin] | 12.5 | 6.25 | 3.13 | 0.78 | 100 | 12.5 | 6.25 | 3.13 | 25 | 0.78 | 0.39 | 3.13 | 0.39 | 12.5 | 12.5 | 0.39
CC1(C)S[C@@H]2[C@H](NC(=O)[C@H](NC(=O)c3cnc4cccnc4c3O)c3ccccc3)C(=O)N2[C@H]1C(=O)O [PC-904, reference compound] | 25 (≈ 47.9 µM) | 12.5 (≈ 24 µM) | 1.56 (≈ 2.99 µM) | 0.78 (≈ 1.5 µM) | 100 (≈ 192 µM) | 50 (≈ 95.9 µM) | 25 (≈ 47.9 µM) | 6.25 (≈ 12 µM) | 50 (≈ 95.9 µM) | 1.56 (≈ 2.99 µM) | 0.39 (≈ 0.748 µM) | 25 (≈ 47.9 µM) | 0.39 (≈ 0.748 µM) | 50 (≈ 95.9 µM) | 12.5 (≈ 24 µM) | 0.39 (≈ 0.748 µM)
COc1ccc(COc2ccc(-c3ccc(C(=O)N[C@@H](C(=O)N[C@@H]4C(=O)N5[C@@H]4SC(C)(C)[C@@H]5C(=O)O)c4ccc(O)cc4)c(=O)[nH]3)cc2OC)cc1OC [Example 3, 6-[4-(3,4-dimethoxybenzyloxy)-3-methoxyphenyl]-1,2-dihydro-2-oxonicotinyl amoxycillin] | 3.13 (≈ 4.12 µM) | 1.56 (≈ 2.06 µM) | 6.25 (≈ 8.24 µM) | 3.13 (≈ 4.12 µM) | 50 (≈ 65.9 µM) | 25 (≈ 32.9 µM) | 6.25 (≈ 8.24 µM) | 3.13 (≈ 4.12 µM) | 25 (≈ 32.9 µM) | 1.56 (≈ 2.06 µM) | 0.2 (≈ 0.264 µM) | 1.56 (≈ 2.06 µM) | 0.39 (≈ 0.514 µM) | 6.25 (≈ 8.24 µM) | 3.13 (≈ 4.12 µM) | 0.39 (≈ 0.514 µM)
